Data taken from US20030220232A1, “Peptide and nucleic acid coding therefor for the detection, diagnosis and therapy of diseases of the nervous system” (priority 2000, published 2003).

Columns and labels:
sodium ion channels = test: Neuroinhibitory assay: inhibition of sodium currents, whole cell mode, differentiated NH15-CA2 neuroblastoma-x-glioma cells; assay type: cell-based; conditions: for concentration of solution with corresponding electrophysiological action on neuronal sodium channels: 10 μM peptide solution corresponds to 50 μM lidocaine solution
Description: “Neuroinhibitory activity” here means the capacity of a substance for blocking sodium ion channels. Neuroinhibitory activity can be measured in this connection by the inhibition of sodium ion currents through potential-dependent sodium ion channels. (Review article by Lehmann-Horn et al. in Rev. Physiol. Biochem. Pharmacol. 128; (1996), 198-268). The experimental conditions for measurement of the neuroinhibitory activity are described, for example, in Brinkmeier et al., Muscle and Nerve 19 (1996), 54-62. Neuroinhibitory activity can be determined using differentiated NH15-CA2 [neuroblastoma×glioma] cells (Hamprecht et al., Meth. Enzymol. 109 (1985), 316-41; Brinkmeier et al., Muscle Nerve 19 (1996), 54-62).
The neuroinhibitory activity was determined by the inhibition of sodium ion channels using differentiated NH15-CA2 neuroblastoma-x-glioma cells. The culture conditions and morphological and physiological parameters of the differentiation of these cells are known (Hamprecht et al., Meth. Enzymol. 109 (1985), 316-41). For the assay, the cells were transferred into a hydrophobic test dish which was filled with standard external liquid (140 mM NaCl; 3.5 mM KCl; 1.0 mM CaCl2; 1.0 mM MgCl2; 2 mM HEPES, pH 7.4). The dish was on the platen of an inverted microscope for observation of the cells, while these were treated with pipettes which were filled with internal solution (140 mM CsCl; 1.4 mM MgCl2; 10 mM EGTA and 10 mM HEPES (peak resistances: […])). The sodium currents were induced and recorded in the whole cell mode. The determination of the maximum current amplitudes as a response to repetitive rectangular pulses from −85 to −20 mV lasting 8 ms before, during and after administration of the test solution can be used as a rapid test for the neuroinhibitory activity. The decrease in the current was recorded in three to five cells and the means were determined. An extended test consisted of determination of the “steady-state” activation and inactivation parameters of sodium ion channels. To determine the dependence of the activation on potential, a cyclic pulse program was used, which comprised pre-pulses which depolarized the cells from an HP (holding potential) of −85 mV to −135 mV over 100 ms, and subsequent variable test pulses which depolarized for 8 ms in 4 mV steps from −65 to +31 mV. For the dependence of the inactivation on potential, a similar program was used, which comprised a fixed 100 ms conditioning pulse at −135 mV, a variable 32 ms prepulse in the course of −135 to −19 mV in 4 mV steps and a constant test pulse which depolarized the cells to −20 mV. The size of the left shift of the h curve in the presence of test solutions was used as a measured of the inhibition of the sodium ion channels.
The neuroinhibitory activity of the synthetic peptide with the sequence (SEQ ID NO:1) was determined by the inhibition of the sodium currents by ion channels which were induced by 1 Hz rectangular pulses from […]. […] In each case the mean with the standard deviation is shown.

[1] = target: sodium ion channels of differentiated NH15-CA2 neuroblastoma-x-glioma cells; test: cell-based or functional assay

Compound: CCN(CC)CC(=O)Nc1c(C)cccc1C [lidocaine, reference compound]
- concentration of solution with corresponding electrophysiological action on neuronal sodium channels (sodium ion channels): 50 μM

Compound: Gln-Tyr-Asn-Ala-Asp (QYNAD) [SEQ ID NO:1]
- concentration at saturation of the neuroinhibitory effect (sodium ion channels): 100 µM
- neuroinhibitory activity compared with lidocaine (sodium ion channels): significantly higher
- neuroinhibitory activity in respect of sodium ion channels (in words) (sodium ion channels): blocks their sodium currents
- concentration of solution with corresponding electrophysiological action on neuronal sodium channels (sodium ion channels): 10 μM
- peptide-mediated blocking of the ion channel (time course) (sodium ion channels; NH15-CA2 cells): rapid and reversible
- IC50 (sodium ion channels; NH15-CA2 cells, currents induced by 1 Hz rectangular pulses, seven measurements, read-out: peptide concentration giving half-maximum inhibition of the sodium ion currents): < 10 µM

Compound: Gln-Tyr-Asn-Asp-Ala (QYNDA) [SEQ ID NO:2]
- neuroinhibitory activity in respect of sodium ion channels (in words) (sodium ion channels): does not have a neuroinhibitory activity

Compound: synthetic peptide Gln-Tyr-Asn-Ala-Asp (SEQ ID NO: 1)
- half-maximum inhibition of the sodium ion currents [1]: < 10 µM
- saturation of the peptide effect [1]: 100 µM
